From patent publication US12005056B2, “Centrally-active ghrelin agonist and medical uses thereof” (Helsinn Healthcare SA, priority 2018, dated 2024)
Entries after “also recorded” stand apart in the source; their conditions may differ. Like-named read-outs stand apart in the source and are kept apart here.

Tests used:
[1] = rat, in vivo
[2] = mouse, in vivo
Experimental: Sixty female Balb/C mice weighing 20-25 g at start of experiment were used and divided into 4 groups of 15 mice each. […] Body weights were measured daily, immediately prior to the initiation of dosing.

[3] = system: bortezomib-treated Wistar rats; assay: Bortezomib study, prevention paradigm; assay type: in vivo; conditions: for Allodynia / Body Weight / DRG/nerve pathology / IENFD / NCS: Bortezomib Preventive setting, 0.2 mg/kg (i.v.) 3 times/week for 8 weeks
[4] = system: oxaliplatin-treated Balb/C mice; conditions: for Body Weight / IENFD / NCS: Oxaliplatin 6 mg/kg (i.p.) twice weekly for 4 weeks
human GHSR1a receptor = biological target: T1, human GHSR1a receptor (Homo sapiens, UniProt Q92847); assay: FLIPR assay in HEK293 cells stably expressing human GHSR1a receptor; assay type: cell-based; conditions: read-out: EC50, agonist activity in FLIPR assay
T1 construct: expressed in transfected cells; host or cells: HEK293
T1 sequence (Q92847 whole entry): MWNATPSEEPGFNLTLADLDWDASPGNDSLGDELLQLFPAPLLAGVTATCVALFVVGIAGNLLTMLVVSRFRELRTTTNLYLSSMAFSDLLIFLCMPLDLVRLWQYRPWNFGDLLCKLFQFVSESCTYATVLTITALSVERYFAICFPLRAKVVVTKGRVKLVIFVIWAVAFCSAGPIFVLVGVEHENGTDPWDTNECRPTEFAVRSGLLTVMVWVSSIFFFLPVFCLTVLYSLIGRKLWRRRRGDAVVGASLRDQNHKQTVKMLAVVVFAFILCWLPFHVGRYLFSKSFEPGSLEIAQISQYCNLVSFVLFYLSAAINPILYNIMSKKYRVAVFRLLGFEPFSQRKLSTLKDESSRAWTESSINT
Experimental: HEK293 cells stably expressing human GHSR1a receptor were used in FLIPR assay. Cells were maintained under standard procedures. One day prior the test, cells were seeded at a density of 1.5×10^4/well in a Matrigel® coated 384-well plate with 30 μl of complete DMEM medium, and incubated at 37° C. in 5% CO2 for 22-26 hrs. On the test day, 4× loading dye was added into each well (10 μl per well for 384 well plates). Assay plates were incubated at 37° C. in the dark for 30 minutes. Then the dye content was removed by centrifugation at 300 rpm for 30 s. 40 μL HBSS/Hepes with 1 mM probenicid was added with Platemate Matrix (low speed setting, Thermo). The plate was then placed in FLIPR Tetra (Molecular Device) and 5× working concentrations of agonists were added by FLIPR. Fluorescence signal was detected with FLIPR at room temperature according to standard settings.

[5] = dog, in vivo
healthy male subjects = assay type: in vivo, human; conditions: for maximal decrease of mean heart rate (Holter-ECG): 1 to 3 hours after administration
Experimental: The study was performed as a single-center, randomized, double-blind, placebo-controlled, Phase 1 study with healthy male subjects receiving single ascending oral doses of Compound A. A dose-escalation design was considered to be appropriate to investigate the safety and tolerability of this new compound in the first single dose study in humans. Within each cohort six subjects were to receive a single oral dose of Compound A and two subjects were to receive placebo on Day 1.
Each subject received a single oral dose of either Compound A or placebo in a randomized fashion. Study drug administrations were performed in the morning of Day 1. The proper administration of the study medication was supervised by the Investigator or delegate. This included checking the oral and buccal cavity. The study medication or placebo was supplied as powder-containing gelatin capsules; they were administered orally together with 240 mL water. Subjects were dosed in a fasted state (no food was taken for at least 8 hours prior to dosing). Access to food was restricted until 4 hours after dosing.
12-lead ECGs were recorded on Day −1 and from pre-dose on Day 1 to 72 hours after drug administration. In addition, a Holter-ECG was recorded from about at least 12 hours prior to the planned dosing until 24 hours post-dose. Triplicate extracts (1 min interval) were taken at the same time-points when paper ECGs were taken. Vital signs (blood pressure, pulse rate, body temperature [auricular measurement]) were measured on Day −1 and then from pre-dose on Day 1 to 72 hours post-dose. 12-lead ECGs were recorded as scheduled in the study flow chart using the ECG system (Cardiosoft, Marquette Hellige). Triplicate ECGs were recorded at 36, 48 and 72 hours post-dose. The ECGs were recorded in supine position after at least 5 minutes rest or after at least 15 minutes rest at time points when ECG extracts from the Holter-ECG were done (to allow for a sufficient time period). ECGs were plotted with a paper speed of 50 mm/s and 10 mm/mV amplitude, with 10 seconds recording duration for all leads and at least 3 complexes, but preferably 5 complexes in each lead. The following ECG parameters were evaluated: heart rate, PR interval, QRS interval, QT interval, QTcB (using Bazett's correction formula) and QTcF (using Fridericia's correction formula).

With “3-(1-(2,3-dichloro-4-methoxyphenyl) ethyl)-1-methyl-1-(1,3,3-trimethylpiperidin-4-yl)urea monohydrochloride salt [Compound A]” the AUClast ([1]; iv, 3 mg/kg) was 937 ± 145 ng·h/mL, the C0083/Cmax ([1]; iv, 3 mg/kg) was 682 ± 58.5 ng/mL and the “CL (clearance)” value ([1]; iv, 3 mg/kg) was 52.0 ± 9.22 mL/min/kg. The “Vss (volume distribution at steady state)” value ([1]; iv, 3 mg/kg) was 6.6 ± 0.491 L/kg, the “t1/2, z” value ([1]; iv, 3 mg/kg) was 1.92 ± 0.121 h and the AUClast ([1]; iv, 10 mg/kg) was 3540 ± 765 ng·h/mL. For the same substance, the AUClast ([1]; po, 3 mg/kg) was 780 ± 155 ng·h/mL, the C0083/Cmax ([1]; po, 3 mg/kg) was 181 ± 43.7 ng/mL and the “F (bioavailability)” value ([1]; po, 3 mg/kg) was 83 ± 21%. The “t1/2, z” value ([1]; po, 3 mg/kg) was 2.56 ± 0.177 h, the tmax ([1]; po, 3 mg/kg) was 1.67 ± 0.577 h and the AUClast ([1]; po, 10 mg/kg) was 3400 ± 1010 ng·h/mL. It also gave a tmax ([1]; po, 10 mg/kg) of 1.67 ± 2.02 h, an AUClast ([1]; po, 30 mg/kg) of 12300 ± 1400 ng·h/mL and a C0083/Cmax ([1]; po, 30 mg/kg) of 1430 ± 208 ng/mL. The “F (bioavailability)” value ([1]; po, 30 mg/kg) was 116 ± 28%, the bioavailability ([1]; po, 30 mg/kg) was “exceeded 80%” and the “t1/2, z” value ([1]; po, 30 mg/kg) was 3.26 ± 0.170 h. The tmax ([1]; po, 30 mg/kg) was 1.67 ± 0.577 h, the “tissue penetration index (ratio of tissue/plasma) in DRG” value [2] was 18-19 fold and the “tissue penetration index (ratio of tissue/plasma) in SN” value [2] was 9-12 fold. The “Tissue penetration index (DRG/plasma ratio)” value ([2]; 10 mg/kg) was 17.6, the “Tissue penetration index (SN/plasma ratio)” value ([2]; 10 mg/kg) was 8.9 and the “Tissue penetration index (DRG/plasma ratio)” value ([2]; 30 mg/kg) was 18.9. For the same substance, the “Tissue penetration index (SN/plasma ratio)” value ([2]; 30 mg/kg) was 12.0, the “AUC0-∞ in sciatic nerve and DRG relative to plasma” value ([2]; po, 30 mg/kg) was 3-4 fold and the “terminal half-life in plasma” value ([2]; po, 30 mg/kg) was “approximately 1 h”. The “terminal half-life in sciatic nerve” value ([2]; po, 30 mg/kg) was “approximately 4.7 h”, the Allodynia ([3]; Compound A dose 3) was “+” and the “Body Weight” value ([3]; Compound A dose 3) was “+/−”. The DRG/nerve pathology ([3]; Compound A dose 3) was “−”, the IENFD ([3]; Compound A dose 3) was “+” and the NCS ([3]; Compound A dose 3) was “−”. The Allodynia ([3]; Compound A dose 10) was “+”, the “Body Weight” value ([3]; Compound A dose 10) was “+/−” and the DRG/nerve pathology ([3]; Compound A dose 10) was “+/−”. The IENFD ([3]; Compound A dose 10) was “+”, the NCS ([3]; Compound A dose 10) was “−” and the Allodynia ([3]; Compound A dose 30) was “+”. For the same substance, the “Body Weight” value ([3]; Compound A dose 30) was “+/−”, the DRG/nerve pathology ([3]; Compound A dose 30) was “+/−” and the IENFD ([3]; Compound A dose 30) was “+”. For the same substance, the NCS ([3]; Compound A dose 30) was “+/−”, the “mild axonal changes in the sciatic nerve” value ([3]; different doses) was “did not alter these changes” and the “DRG sensory neuron degeneration and satellite cell vacuolization” value ([3]; preventive setting) was “incomplete protection”. The “digital NCV vs CTRL” value ([3]; preventive setting, Compound A 30 mg/kg) was “no alteration”, the “digital NCV vs CTRL” value ([3]; preventive setting, Compound A 3 and 10 mg/kg) was “statistically significant reduction” and the “bortezomib-induced reduction in IENFD” value ([3]; preventive setting, all doses) was “significantly prevented”. For the same substance, the “allodynia vs CTRL (mechanical threshold)” value ([3]; preventive setting, all doses, end of treatment) was “did not show allodynia”, the “caudal NCV and caudal potential amplitude vs CTRL” value ([3]; preventive setting, all doses, monohydrochloride salt) was “statistically significant reduction” and the “digital potential amplitude vs CTRL” value ([3]; preventive setting, all groups, end of treatment) was “No changes”. For the same substance, the “caudal nerve pathological changes” value ([3]; preventive setting, different doses) was “mild, not dose-dependent reduction in these pathological changes”, the “body weight difference vs. CTRL and bortezomib groups” value ([3]; preventive study, at the end of treatment) was “not significant” and the “body weight vs. CTRL and bortezomib groups” value ([3]; preventive study, different doses, first few weeks until day 21) was “significant increase in body weight”. For the same substance, the “improvement of digital potential amplitude vs. oxaliplatin-treated mice” value ([4]; Compound A 30 mg/kg) was 33+/−9%, the digital potential amplitude ([4]; Compound A 30 mg/kg (FIG. 2B)) was “able to normalize” and the “oxaliplatin-induced decrease in digital and caudal NCV” value ([4]; Compound A 10 and 30 mg/kg) was “significantly prevented”. The “IENFD in footpads vs. vehicle treated mouse values” ([4]; Compound A 10 and 30 mg/kg, monohydrochloride salt) was “completely normalized; also recorded: completely normalised”, the “weight loss compared to oxaliplatin treated mice” value ([4]; Compound A 10 or 30 mg/kg) was “less weight loss” and the “Body Weight” value ([4]; Compound A dose 10) was “+”. For the same substance, the IENFD ([4]; Compound A dose 10) was “+”, the NCS ([4]; Compound A dose 10) was “+” and the “Body Weight” value ([4]; Compound A dose 30) was “+”. For the same substance, the IENFD ([4]; Compound A dose 30) was “+”, the NCS ([4]; Compound A dose 30) was “+” and the “degenerative changes in DRG and sciatic nerve” value ([4]; mouse, in vivo) was “did not cause any degenerative changes”. It also gave an EC50 (human GHSR1a receptor) of 1.25 ± 0.42 nM, an F [5] of 31.2% and a T1/2 z ([5]; iv, 1 mg/kg) of 1.6 h. It also gave a Vz/F ([5]; iv, 1 mg/kg) of 3.7 L/kg, a T1/2 z ([5]; po, 2 mg/kg) of 1.6 h and a Vz/F ([5]; po, 2 mg/kg) of 13.0 L/kg. The “time after dosing at which pre-dose heart rate levels were reached again” value (healthy male subjects; 0.1 to 10 mg single oral dose) was 6 h, the pulse rate (healthy male subjects; groups treated with Compound A) was “decrease” and the “maximal decrease of mean heart rate (Holter-ECG)” value (“maximal decrease” for short) (healthy male subjects; single oral dose 0.1 mg) was 5.1 bpm. For the same substance, the “maximal decrease” value (healthy male subjects; single oral dose 0.3 mg) was 6.8 bpm, the “maximal decrease” value (healthy male subjects; single oral dose 1.0 mg) was 15.9 bpm and the “maximal decrease” value (healthy male subjects; single oral dose 10 mg) was 18.3 bpm.
